Test results reported in patent US20050164993A1, “Methods of treating allergic reactions” (priority 2002, published 2005).

System: BALB/c 3T3 (CCL-163) cells
Experiment: 3T3 Neutral Red uptake phototoxicity assay (with/without UVA)
Conditions: not given
Description: Streptomycin sulfate ([…]) and penicillin (100 IU/ml) were added to the medium after the cells were treated with test article in 96-well plates.
Serial dilutions of the tetracycline derivatives were prepared in DMSO at concentrations 100× to final testing concentration. The COL dilutions in DMSO were then diluted in Hanks' Balanced Salt Solution (HBSS) for application to the cells. The final DMSO concentration was 1% in treated and control cultures. A dose range finding assay is conducted with eight serial dilutions covering a range of 100-0.03 μg/ml in half log steps. Definitive assays are conducted with 6-8 serial dilutions prepared in quarter log steps, centered on the expected 50% toxicity point as determined in the dose range finding assay. One hundred 100 μg/ml was the highest dose recommended to prevent false negative results from UV absorption by the dosing solutions. One dose range finding and at least two definitive trials were performed on each tetracycline derivative and control compound.
Controls: Each assay included both negative (solvent) and positive controls. Twelve wells of negative control cultures were used on each 96-well plate. Chlorpromazine (Sigma Chemicals) was used as the positive control and was prepared and dosed like the test tetracycline derivatives.
Solar Simulator: A Dermalight SOL 3 solar simulator, equipped with a UVA H1 filter (320-400 nm), was adjusted to the appropriate height. Measurement of energy through the lid of a 96-well microtiter plate was carried out using a calibrated UV radiometer UVA sensor. Simulator height was adjusted to deliver 1.7±0.1 mW/cm^2 of UVA energy (resulting dose was 1 J/cm^2 per 10 minutes of exposure).
Phototoxicity Assay: Duplicate plates were prepared for each test material by seeding 10^4 3T3 cells per well in complete medium 24 hours before treatment. Prior to treatment, the medium was removed, and the cells washed once with 125 μl of prewarmed HBSS. Fifty μl of prewarmed HBSS were added to each well. Fifty μl of each test article dilution were added to the appropriate wells and the plates returned to the incubator for approximately one hour. Six wells were treated with each dose of test or control article on each plate. Following the 1 hr incubation, the plates designated for the photo irradiation were exposed (with the lid on) to 1.7±0.1 mW/cm^2 UVA light for 50±2 minutes at room temperature resulting in an irradiation dose of 5 J/cm^2. Duplicate plates, designated for the measurement of cytotoxicity without light, were kept in the dark room temperature for 50±2 minutes. After the 50 minute exposure period (with or without light) the test article dilutions were decanted from the plates and the cells washed once with 125 μl of HBSS. One hundred μl of medium were added to all wells and the cells incubated as above for 24±1 hours.
After 24 hours of incubation, the medium was decanted and 100 μl of the Neutral Red containing medium were added to each well. The plates were returned to the incubator and incubated for approximately 3 hours. After 3 hours, the medium was decanted and each well rinsed once with 250 μl of HBSS. The plates were blotted to remove the HBSS and 100 μl of Neutral Red Solvent were added to each well. After a minimum of 20 minutes of incubation at room temperature (with shaking), the absorbance at 550 nm was measured with a plate reader, using the mean of the blank outer wells as the reference. Relative survival was obtained by comparing the amount of neutral red taken by each well treated with the test article and positive control to the neutral red taken up by the average of the negative wells (12 wells) on the same plate. The amount of neutral red taken up by the negative control wells is considered to be 100% survival.
With `NC(=O)C1=C(O)C[C@@H]2C[C@@H]3Cc4cccc(O)c4C(=O)C3=C(O)[C@]2(O)C1=O` [COL 3, 6-demethyl-6-deoxy-4-dedimethylaminotetracycline] the “PIF 1 (photoirritancy factor, earlier software)” value was 647 and the “PIF 2 (photoirritancy factor, OECD Draft Guideline 432)” value was 84.72.
In the case of `CC1c2cccc(O)c2C(=O)C2=C(O)C3(O)C(=O)C(C(N)=O)=C(O)CC3C(O)C21` (stereo not drawn) [COL 8, 4-dedimethylaminodoxycycline], the “PIF 1 (photoirritancy factor, earlier software)” value is reported as 165 and the “PIF 2 (photoirritancy factor, OECD Draft Guideline 432)” value is reported as 82.61.
In the case of `CN(C)c1ccc(O)c2c1CC1CC3CC(O)=C(C(N)=O)C(=O)C3(O)C(O)=C1C2=O` (stereo not drawn) [COL 10, 4-dedimethylaminominocycline], the “PIF 2 (photoirritancy factor, OECD Draft Guideline 432)” value is reported as 2.04.
With `NC(=O)C1=C(O)CC2CC3Cc4c([N+](=O)[O-])ccc(O)c4C(=O)C3=C(O)C2(O)C1=O` (stereo not drawn) [COL 302, 7-nitro-6-demethyl-6-deoxy-4-dedimethylaminotetracycline] the “PIF 1 (photoirritancy factor, earlier software)” value was 23.16 and the “PIF 2 (photoirritancy factor, OECD Draft Guideline 432)” value was 23.32.
In the case of `NC(=O)C1=C(O)CC2CC3Cc4ccc([N+](=O)[O-])c(O)c4C(=O)C3=C(O)C2(O)C1=O` (stereo not drawn) [COL 303, 9-nitro-6-demethyl-6-deoxy-4-dedimethylaminotetracycline], the “PIF 1 (photoirritancy factor, earlier software)” value is reported as 5.27 and the “PIF 2 (photoirritancy factor, OECD Draft Guideline 432)” value is reported as 13.82.
With `CN(C)c1ccc2c(c1O)C(=O)C1=C(O)C3(O)C(=O)C(C(N)=O)=C(O)CC3CC1C2` (stereo not drawn) [COL 306, 9-dimethylamino-6-demethyl-6-deoxy-4-dedimethylaminotetracycline] the “PIF 1 (photoirritancy factor, earlier software)” value was 1.64 and the “PIF 2 (photoirritancy factor, OECD Draft Guideline 432)” value was 1.56.
For `NC(=O)C1=C(O)CC2CC3Cc4c(N)ccc(O)c4C(=O)C3=C(O)C2(O)C1=O` (stereo not drawn) [COL 307, 7-amino-6-demethyl-6-deoxy-4-dedimethylaminotetracycline], the “PIF 1 (photoirritancy factor, earlier software)” value was 1.17.
With `NC(=O)C1=C(O)CC2CC3Cc4ccc(N)c(O)c4C(=O)C3=C(O)C2(O)C1=O` (stereo not drawn) [COL 308, 9-amino-6-demethyl-6-deoxy-4-dedimethylaminotetracycline] the “PIF 1 (photoirritancy factor, earlier software)” value was 1.0.
For `CN(C)CC(=O)Nc1ccc2c(c1O)C(=O)C1=C(O)C3(O)C(=O)C(C(N)=O)=C(O)CC3CC1C2` (stereo not drawn) [COL 309, 9-dimethylaminoacetamido-6-demethyl-6-deoxy-4-dedimethylaminotetracycline], the “PIF 1 (photoirritancy factor, earlier software)” value was 5.17 and the “PIF 2 (photoirritancy factor, OECD Draft Guideline 432)” value was 12.87.
In the case of `CCCCCCCCCCCCCCCC(=O)Nc1ccc2c(c1O)C(=O)C1=C(O)C3(O)C(=O)C(C(N)=O)=C(O)CC3CC1C2` (stereo not drawn) [COL 311, 9-palmitamide-6-demethyl-6-deoxy-4-dedimethylaminotetracycline], the “PIF 1 (photoirritancy factor, earlier software)” value is reported as 1.0.
In the case of `O=C(NCN1CCCC1)C1=C(O)CC2CC3Cc4cccc(O)c4C(=O)C3=C(O)C2(O)C1=O` (stereo not drawn) [COL 312, 2-CONHCH2-pyrrolidin-1-yl-6-demethyl-6-deoxy-4-dedimethylaminotetracycline], the “PIF 1 (photoirritancy factor, earlier software)” value is reported as 62.67 and the “PIF 2 (photoirritancy factor, OECD Draft Guideline 432)” value is reported as 75.11.
With `O=C(NCN1CCCCC1)C1=C(O)CC2CC3Cc4cccc(O)c4C(=O)C3=C(O)C2(O)C1=O` (stereo not drawn) [COL 313, 2-CONHCH2-piperidin-1-yl-6-demethyl-6-deoxy-4-dedimethylaminotetracycline] the “PIF 1 (photoirritancy factor, earlier software)” value was 80.27 and the “PIF 2 (photoirritancy factor, OECD Draft Guideline 432)” value was 58.22.
With `O=C(NCN1CCOCC1)C1=C(O)CC2CC3Cc4cccc(O)c4C(=O)C3=C(O)C2(O)C1=O` (stereo not drawn) [COL 314, 2-CONHCH2-morpholin-1-yl-6-demethyl-6-deoxy-4-dedimethylaminotetracycline] the “PIF 1 (photoirritancy factor, earlier software)” value was 41.1 and the “PIF 2 (photoirritancy factor, OECD Draft Guideline 432)” value was 89.48.
In the case of `O=C(NCN1CCNCC1)C1=C(O)CC2CC3Cc4cccc(O)c4C(=O)C3=C(O)C2(O)C1=O` (stereo not drawn) [COL 315, 2-CONHCH2-piperazin-1-yl-6-demethyl-6-deoxy-4-dedimethylaminotetracycline], the “PIF 1 (photoirritancy factor, earlier software)” value is reported as 15.8 and the “PIF 2 (photoirritancy factor, OECD Draft Guideline 432)” value is reported as 35.30.
In the case of `CC(=O)Nc1ccc2c(c1O)C(=O)C1=C(O)C3(O)C(=O)C(C(N)=O)=C(O)CC3C(O)C1C2C` (stereo not drawn) [COL 801, 9-acetamido-4-dedimethylaminodoxycycline], the “PIF 1 (photoirritancy factor, earlier software)” value is reported as 1.0.
In the case of `CC1c2ccc(NC(=O)CN(C)C)c(O)c2C(=O)C2=C(O)C3(O)C(=O)C(C(N)=O)=C(O)CC3C(O)C21` (stereo not drawn) [COL 802, 9-dimethylaminoacetamido-4-dedimethylaminodoxycycline], the “PIF 1 (photoirritancy factor, earlier software)” value is reported as 1.0.
With `CC1c2ccc([N+](=O)[O-])c(O)c2C(=O)C2=C(O)C3(O)C(=O)C(C(N)=O)=C(O)CC3C(O)C21` (stereo not drawn) [COL 804, 9-nitro-4-dedimethylaminodoxycycline] the “PIF 1 (photoirritancy factor, earlier software)” value was 1.0.
For `CC1c2ccc(N)c(O)c2C(=O)C2=C(O)C3(O)C(=O)C(C(N)=O)=C(O)CC3C(O)C21` (stereo not drawn) [COL 805, 9-amino-4-dedimethylaminodoxycycline], the “PIF 1 (photoirritancy factor, earlier software)” value was 1.0.
In the case of `CC1c2cccc(O)c2C(=O)C2=C(O)C3(O)C(=O)C(C(=O)NCN4CCCC4)=C(O)CC3C(O)C21` (stereo not drawn) [COL 807, 2-CONHCH2-pyrrolidin-1-yl-4-dedimethylaminodoxycycline], the “PIF 1 (photoirritancy factor, earlier software)” value is reported as 40.4.
With `CC1c2cccc(O)c2C(=O)C2=C(O)C3(O)C(=O)C(C(=O)NCN4CCCCC4)=C(O)CC3C(O)C21` (stereo not drawn) [COL 808, 2-CONHCH2-piperidin-1-yl-4-dedimethylaminodoxycycline] the “PIF 1 (photoirritancy factor, earlier software)” value was 46.45.
In the case of `CN(C)c1cc([N+](=O)[O-])c(O)c2c1CC1CC3CC(O)=C(C(N)=O)C(=O)C3(O)C(O)=C1C2=O` (stereo not drawn) [COL 1002, 9-nitro-4-dedimethylaminominocycline], the “PIF 2 (photoirritancy factor, OECD Draft Guideline 432)” value is reported as 1.35.

Same assay, conditions: 3T3 cells, 5 J/cm^2 UVA vs dark; <0.1 nonphototoxin, 0.1 to <0.15 probable, >=0.15 clear phototoxin
For `CN(C)[C@@H]1C(=O)C(C(N)=O)=C(O)[C@@]2(O)C(=O)C3=C(O)c4c(O)cccc4[C@@](C)(O)[C@H]3C[C@@H]12` [Tetracycline, reference compound], the “MPE (mean photo effect)” value was 0.340.

Same assay, conditions: IC50(-UVA)/IC50(+UVA), 3T3 cells; >5 indicative of phototoxic potential
For `CN(C)[C@@H]1C(=O)C(C(N)=O)=C(O)[C@@]2(O)C(=O)C3=C(O)c4c(O)cccc4[C@@](C)(O)[C@H]3C[C@@H]12` [Tetracycline, reference compound], the “PIF 1 (photoirritancy factor, earlier software)” value was 5.38.

Same assay, conditions: mouse
In the case of `CN(C)CCCN1c2ccccc2Sc2ccc(Cl)cc21` [Chlorpromazine, reference compound], the “PIF 2 (photoirritancy factor, OECD Draft Guideline 432)” value is reported as 40.38.
With `C[C@H]1c2cccc(O)c2C(=O)C2=C(O)[C@]3(O)C(=O)C(C(N)=O)=C(O)[C@@H](N(C)C)[C@@H]3[C@@H](O)[C@@H]21` [Doxycycline, 6α-deoxy-5-hydroxytetracycline, reference compound] the “PIF 1 (photoirritancy factor, earlier software)” value was 23.37 and the “PIF 2 (photoirritancy factor, OECD Draft Guideline 432)” value was 26.71.

System: not given
Experiment: not given
Conditions: based on steady-state pharmacokinetics; cited from earlier work
In the case of `C[C@H]1c2cccc(O)c2C(=O)C2=C(O)[C@]3(O)C(=O)C(C(N)=O)=C(O)[C@@H](N(C)C)[C@@H]3[C@@H](O)[C@@H]21` [Doxycycline, 6α-deoxy-5-hydroxytetracycline, reference compound], the “plasma antibiotic threshold level” value is given as 1.0 µg/mL.
In the case of `CN(C)c1ccc(O)c2c1C[C@H]1C[C@H]3[C@H](N(C)C)C(O)=C(C(N)=O)C(=O)[C@@]3(O)C(O)=C1C2=O` [Minocycline, 7-dimethylaminotetracycline], the “plasma antibiotic threshold level” value is given as 0.8 µg/mL.
In the case of `CN(C)[C@@H]1C(=O)C(C(N)=O)=C(O)[C@@]2(O)C(=O)C3=C(O)c4c(O)cccc4[C@@](C)(O)[C@H]3C[C@@H]12` [Tetracycline, reference compound], the “plasma antibiotic threshold level” value is listed as 0.5 µg/mL.
